Consider two compounds from patent publication US11591316B2, “Compounds, compositions, and methods” (DENALI THERAPEUTICS INC., priority 2016, dated 2023).

The data set can be described thus: Metabolic stability in human liver microsomes. In kind it is in vitro ADME. The settings on record: 1 μM compound, 0.5 mg/mL protein, projected hepatic clearance (well-stirred model), Table 5. Here is the method:
Metabolic stability of compounds was evaluated in human liver microsomes (from Corning or XenoTech, LLC) using a 96-well plate assay format. Compounds were incubated at 37° C. at 1 μM final concentration in the microsomal matrix (0.5 mg/mL total protein) in the presence or absence of NADPH cofactor. An NADPH regenerating system, comprised of NADP, MgCl2, isocitric acid, and isocitrate dehydrogenase, was used in the assay. Enzymatic reactions were conducted for 0, 5, 10, 20, 30, or 60 min before termination by addition of acetonitrile containing tolbutamide and labetalol internal standards (100 ng/mL). After shaking for 10 min, plates were subjected to centrifugation (4000 rpm at 4° C.) for 20 min and supernatants were mixed 1:3 with HPLC grade water. Samples were analyzed by LC-MS/MS using appropriate MRM transitions for each analyte and internal standard (IS). Analyte/IS peak area ratios were used to determine percent compound remaining at each time point. Intrinsic clearance (Clint; expressed as mL·min^−1·mg^−1) was calculated from the first order elimination constant (k, min^−1) of test article decay and the volume of the incubation. These values were scaled to intrinsic organ clearance (Clint) using human specific scaling factors (48.8 mg microsomal protein per g liver; 25.7 g liver per kg body weight). […]

As to `CNc1nc(Nc2cn(C(C)(C)c3ncn(C)n3)nc2C)ncc1C(F)(F)F` [Compound 218], the “Human liver microsomes CLhep” value is listed as 0 mL/min/kg.

In the case of `[2H]C([2H])([2H])n1nc(C(C)(C)n2nccn2)cc1Nc1ncc(C(F)(F)F)c(NCC)n1` [Compound 34, N4-Ethyl-N2-[1-(^2H3)methyl-3-[2-(2H-1,2,3-triazol-2-yl)propan-2-yl]-1H-pyrazol-5-yl]-5-(trifluoromethyl)pyrimidine-2,4-diamine], the “Human liver microsomes CLhep” value amounted to 0.75 mL/min/kg.
